Key:
[1] = test system: U46619-induced platelet aggregation; conditions: double blind, 10-day study, 20 healthy volunteers; plasma rich in platelets
Method: It was a double blind, 10-day duration study that was performed in 20 healthy volunteers with an age ranging from 26 to 40 years old. The platelet activation was measured by changes in light transmission of plasma rich in platelets stimulated by a synthetic analogue of TXA2, U46619.

[2] = cited from earlier work
[3] = cited from earlier work; remark: listed apart in the source
platelet aggregation = conditions: cited from earlier work
[4] = radioactively marked Clopidogrel, within a five-day period

## COC(=O)[C@H](c1ccccc1Cl)N1CCc2sccc2C1 [Clopidogrel]
[1]
  U46619 stimulated platelet aggregation: significantly inhibited
[2]; after a dose of 75 mg
  time to maximum plasmatic concentrations of primary metabolite: one
[2]; in vivo
  plasmatic half-life: about 8 hours
[2]; oral
  inactive primary metabolite (carboxylic acid) as share of metabolites circulating in the plasma: about 85%
[2]; oral, not significantly affected by food
  absorption: 50%
[2]; [4]
  eliminated through feces: 46%
  eliminated through urine: About 50%
[2]; two hours after an oral dose
  plasmatic concentrations of the unaltered drug: no longer detectable
[3]
  reversibly bound to plasmatic proteins: 98%
Platelet aggregation; after the treatment discontinuation
  time for platelet aggregation and bleeding-time to return to basal level: five
Platelet aggregation; in balanced conditions, 75 mg per day
  platelet aggregation inhibited: 40-60%
Platelet aggregation; in vitro, requires hepatic activation
  activity in vitro: inactive in vitro
Platelet aggregation; iterative doses of 75 mg per day
  time to maximum inhibition of platelet aggregation: 3 to 7 days
Platelet aggregation; two hours after a single oral dose
  inhibition of platelet aggregation: already observed an inhibition of platelet aggregation

From patent publication EP1992346A1, “PHARMACEUTICAL COMPOSITIONS CONTAINING COMBINED PLATELET AGGREGATION INHIBITING SUBSTANCES FOR USE IN THE TREATMENT AND PREVENTION OF ISCHEMIC VASCULAR EVENTS” (WORLD-TRADE IMPORT-EXPORT, WTIE, A.G., priority 2005, dated 2007)
